Assay: Octenidine extractable from impregnated hydrophilic polyurethane foam, no surfactant
Assay type: physicochemical
Conditions: for Release % water: 24 h extraction in water, UV 285 nm
Description: Discs of hydrophilic polyurethane foam were impregnated by applying a known volume of octenidine-containing solution to the surface of the foam and letting it soak into the foam matrix in a liquid:foam ratio which allowed the foam to be saturated with liquid. Afterwards, the impregnated foam was dried at RT overnight.
The dried foam disc was immersed in the extraction media for 24 h and the extracted octenidine concentration was determined by UV at 285 nm

- Release % phosphate buffer (23 mM) (plain foam impregnated with 0.1 w % OCT solution, 24 h extraction): 7%
- Release % water (plain foam impregnated with 0.1 w % OCT solution): 5%
- Release % water (plain foam impregnated with 0.5 w % OCT solution): 1.5%
- Release % water (plain foam impregnated with 1.0 w % OCT solution): 1.5%
SMILES: CCCCCCCCN=c1ccn(CCCCCCCCCCn2ccc(=NCCCCCCCC)cc2)cc1 [Octenidine, octenidine]
